Where two headings read alike, the source gives them in different places. Starred links: 1 amine or outer side, 2 acyl side, 3 side chain; linkers in the order of their positions; H or OH if unused. Non-standard residues stand in square brackets, D forms with d. Residues, ends and D or L forms follow the SMILES beside them. Groups on a side chain read outwards from the residue. *: point of attachment. C20 diacid = O=C(O)CCCCCCCCCCCCCCCCCCC(=O)*; γGlu = O=C(O)[C@H](CCC(=O)[*:2])N[*:1]; NMeI = CC[C@H](C)[C@H](NC)C(=O)O; Nle = CCCC[C@H](N)C(=O)O; AEEA = NCCOCCOCC(=O)O; Aib = CC(C)(N)C(=O)O
Legend:
[1] = pH 7.5
hCRHR2 = target: T1, hCRHR2 (Homo sapiens, UniProt Q13324); assay: HTRF cAMP assay, determination of hCRHR2 potency (peptide libraries 5 conc., purified peptides 11 conc.); type: cell-based; conditions: for EC50: read-out: hCRHR2 EC50
T1 sequence (Q13324 1-411): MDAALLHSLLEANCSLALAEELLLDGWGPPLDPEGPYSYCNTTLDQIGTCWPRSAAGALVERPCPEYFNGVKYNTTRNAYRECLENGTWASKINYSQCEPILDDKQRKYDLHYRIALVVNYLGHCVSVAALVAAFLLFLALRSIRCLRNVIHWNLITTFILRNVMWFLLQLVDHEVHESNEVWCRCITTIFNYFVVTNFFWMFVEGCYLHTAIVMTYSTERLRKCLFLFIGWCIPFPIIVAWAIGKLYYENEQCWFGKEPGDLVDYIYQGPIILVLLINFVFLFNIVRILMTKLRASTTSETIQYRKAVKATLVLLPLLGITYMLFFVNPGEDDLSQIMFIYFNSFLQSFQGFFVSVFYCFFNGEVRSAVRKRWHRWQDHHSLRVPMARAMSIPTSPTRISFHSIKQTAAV
Method in brief: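 Read-out was HTRF competitive cAMP detection (d2-labelled cAMP, cryptate-labelled antibody) in suspended, freshly thawed CHO-K1 cells stably carrying human CRHR2.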

[2] = Thioflavin T fibril formation assay of purified peptides; type: physicochemical; parameters: key: Amyloid fibril formation detected by an increase in ThT fluorescence was denoted with "Yes"; samples without increasing ThT fluorescence hence not forming amyloid fibrils were denoted "No"
Method in brief: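 Fibril formation read as rising ThT emission at 480 nm (450 nm excitation), 4 µM ThT, over 96 h at 40°C with alternating 5-min rest and 700 rpm shaking cycles, in triplicate. Samples were 200 µM compound in 50 mM phosphate at various pH values, or co-formulated at 200 µM in semaglutide product at pH 7.4.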

hCRHR1 = target: T2, hCRHR1 (Homo sapiens, UniProt P34998); assay: HTRF cAMP assay, determination of hCRHR1 potency (peptide libraries 5 conc., purified peptides 11 conc.); type: cell-based; conditions: read-out: hCRHR1 EC50
T2 sequence (P34998 24-415): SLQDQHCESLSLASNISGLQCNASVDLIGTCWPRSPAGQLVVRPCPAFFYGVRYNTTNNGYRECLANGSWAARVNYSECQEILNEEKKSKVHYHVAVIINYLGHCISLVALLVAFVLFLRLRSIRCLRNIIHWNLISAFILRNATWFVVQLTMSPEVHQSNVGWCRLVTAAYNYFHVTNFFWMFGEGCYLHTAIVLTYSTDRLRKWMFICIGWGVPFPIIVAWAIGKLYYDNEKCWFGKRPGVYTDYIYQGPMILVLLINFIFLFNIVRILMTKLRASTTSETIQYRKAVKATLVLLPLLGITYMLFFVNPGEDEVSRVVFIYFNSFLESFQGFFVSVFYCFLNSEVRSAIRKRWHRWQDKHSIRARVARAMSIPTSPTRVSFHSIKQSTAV
Method in brief: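 Cellular cAMP was read by time-resolved FRET between d2-labelled cAMP and cryptate anti-cAMP antibody. The cells were freshly thawed suspension CHO-K1 cells stably expressing human CRHR1.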

[3] = Chemical stability of purified peptides (RP-UHPLC main peak purity loss); type: physicochemical
Method: Chemical stability was tested at a concentration of approximately of 1.0 mg/ml peptide in the following vehicles: 50 mM phosphate buffer pH 7.5. Dissolved samples were incubated for at least 2 h at room temperature on a rocking table. The main peak purity at time zero (T0) was determined using reversed phase chromatography. The samples were incubated at 40°C for 14 days (T14) and 28 days (T28). The samples were analyzed with reversed phase chromatography and size exclusion chromatography.
Reversed Phase chromatography was performed on a Thermo Dionex Ultimate UHPLC system with UV detection at 215 nm) and equipped with a Kinetex column (1.7 µm, C8, 100 Å, 150 x 2.1 mm (00F-4499-AN)). Analysis was performed by gradient elution with buffer A (0.1% TFA in 95:5 H2O:acetonitrile) and buffer B (0.1% TFA in 5:95 H2O: acetonitrile) at a column temperature of 50 °C (gradient used 25-55%B over 40 min. Flowrate was 0.5 mL/min. The main peak purity was determined from the integrated chromatogram as the area under the main peak relative to the total peak area. The purity loss was calculated as the difference between the T0 and T14 time point and/or as the difference between the T0 and T28 time point.
The chemical stability of selected peptides was evaluated at varying pH's at 40° C over 28 days. Samples were prepared and analysed as described in procedure with the addition of pH adjusting samples to the targets indicated below. As a comparator,r commercially available semaglutide drug product (Ozempic®, Novo Nordisk) was included in the sample set.

[4] = purified peptides, CHO-K1 cells stably expressing hCRHR2, cAMP HTRF
[5] = purified peptides, CHO-K1 cells stably expressing hCRHR1, cAMP HTRF
[6] = pH 7.5, 40°C, 14 days, first value of cell

SMILES	Solubility pH 7.5, target conc. =10 mg/mL (measured mg/mL) [1] [mg/mL]	Selectivity ratio (hCRHR1/ hCRHR2) (hCRHR2; hCRHR1-EC50/hCRHR2-EC50)	EC50 (hCRHR2; [4]) [nM]	Fibrillation (pH 7.5) ([2]; pH 7.5, ThT assay)	EC50 (hCRHR1; [5]) [nM]	Chemical stability at pH 7.5 after 14 days at 40°C (% degradation) [3, 6]	Chemical stability at pH 7.5 after 28 days at 40°C (% degradation) ([3]; pH 7.5, 40°C, 28 days, second value of cell) [%]	Selectivity ratio (hCRHR1/ hCRHR2) (hCRHR2; Table 5)	EC50 (hCRHR2; Table 5, purified peptides) [nM]	Fibrillation (pH 7.5) ([2]; pH 7.5)	EC50 (hCRHR1; Table 5, purified peptides) [nM]	Chemical stability at pH 7.5 after 14 days at 40°C (% degradation) ([3]; pH 7.5, 14 days, 40°C) [%]	Chemical stability at pH 7.5 after 28 days at 40°C (% degradation) ([3]; pH 7.5, 28 days, 40°C) [%]
CC[C@H](C)[C@H](N)C(=O)N[C@H](C(=O)N[C@@H](CC(C)C)C(=O)N[C@@H](CO)C(=O)N[C@@H](CC(C)C)C(=O)N[C@@H](CC(=O)O)C(=O)N[C@H](C(=O)N1CCC[C@H]1C(=O)N[C@H](C(=O)NCC(=O)N[C@@H](CC(C)C)C(=O)N[C@@H](CC(C)C)C(=O)N[C@@H](CCC(N)=O)C(=O)N[C@H](C(=O)N[C@@H](CC(C)C)C(=O)N[C@@H](CC(C)C)C(=O)N[C@@H](CCC(=O)O)C(=O)N[C@@H](CCC(N)=O)C(=O)N[C@@H](C)C(=O)N[C@@H](CCCNC(=N)N)C(=O)N[C@@H](C)C(=O)N[C@@H](CCCNC(=N)N)C(=O)N[C@@H](C)C(=O)N[C@@H](C)C(=O)N[C@@H](CCCNC(=N)N)C(=O)N[C@@H](CCC(=O)O)C(=O)N[C@@H](CCC(N)=O)C(=O)N[C@@H](C)C(=O)N[C@@H](CCCCNC(=O)COCCOCCNC(=O)COCCOCCNC(=O)CC[C@H](NC(=O)CC[C@H](NC(=O)CCCCCCCCCCCCCCCCCCC(=O)O)C(=O)O)C(=O)O)C(=O)N[C@H](C(=O)N[C@@H](CC(N)=O)C(=O)N[C@@H](CC(C)C)C(=O)N[C@@H](CCC(=O)O)C(=O)N[C@H](C(=O)N[C@@H](CC(C)C)C(=O)N[C@@H](C)C(=O)N[C@@H](CCC(=O)O)C(=O)N[C@H](C(N)=O)C(C)C)[C@@H](C)CC)[C@@H](C)O)[C@@H](C)CC)[C@@H](C)CC)C(C)C)C(C)C [SEQ ID NO: 12] (H-IVLSLDVPIGLLQILLEQARARAAREQAK([AEEA-AEEA-γGlu-γGlu-C20 diacid])TNLEILAEV-NH2)	9.1	>1136	4.4	No	> 5000	-0.6%	-1.2	–	–	–	–	–	–
CCCC[C@H](NC(=O)[C@@H](NC(=O)[C@H](CCC(=O)O)NC(=O)[C@H](C)NC(=O)[C@H](CC(N)=O)NC(=O)C(C)(C)NC(=O)[C@H](CCCCNC(=O)COCCOCCNC(=O)COCCOCCNC(=O)CC[C@H](NC(=O)CC[C@H](NC(=O)CCCCCCCCCCCCCCCCCCC(=O)O)C(=O)O)C(=O)O)NC(=O)[C@H](C)NC(=O)[C@H](CCC(N)=O)NC(=O)[C@H](CCC(=O)O)NC(=O)[C@H](CCCNC(=N)N)NC(=O)[C@H](C)NC(=O)[C@H](C)NC(=O)[C@H](CCCNC(=N)N)NC(=O)[C@H](C)NC(=O)[C@H](CCCNC(=N)N)NC(=O)[C@H](C)NC(=O)[C@H](CCC(N)=O)NC(=O)[C@H](CCC(=O)O)NC(=O)[C@H](CC(C)C)NC(=O)[C@H](CC(C)C)NC(=O)[C@@H](NC(=O)[C@H](CCC(N)=O)NC(=O)[C@H](CC(C)C)NC(=O)[C@H](CC(C)C)NC(=O)CNC(=O)[C@@H](NC(=O)[C@@H]1CCCN1C(=O)[C@@H](NC(=O)[C@H](CC(=O)O)NC(=O)[C@H](CC(C)C)NC(=O)[C@H](CO)NC(=O)[C@H](CC(C)C)NC(=O)[C@@H](NC(=O)[C@@H](N)[C@@H](C)CC)C(C)C)C(C)C)[C@@H](C)CC)[C@@H](C)CC)[C@@H](C)CC)C(=O)N[C@@H](C)C(=O)N[C@@H](CCC(=O)O)C(=O)N[C@H](C(N)=O)[C@@H](C)CC [compound 236] (H-IVLSLDVPIGLLQILLEQARARAAREQAK([AEEA-AEEA-γGlu-γGlu-C20 diacid])[Aib]NAEI[Nle]AEI-NH2)	10	–	–	–	–	–	–	>7463	0.67	No	> 5000	-1	-3
CCCC[C@H](NC(=O)[C@@H](NC(=O)[C@H](CCC(=O)O)NC(=O)C(C)(C)NC(=O)[C@H](CC(N)=O)NC(=O)[C@@H](NC(=O)[C@H](CCCCNC(=O)COCCOCCNC(=O)COCCOCCNC(=O)CC[C@H](NC(=O)CC[C@H](NC(=O)CCCCCCCCCCCCCCCCCCC(=O)O)C(=O)O)C(=O)O)NC(=O)[C@H](C)NC(=O)[C@H](CCC(N)=O)NC(=O)[C@H](CCC(=O)O)NC(=O)[C@H](CCCNC(=N)N)NC(=O)[C@H](C)NC(=O)[C@H](C)NC(=O)[C@H](CCCNC(=N)N)NC(=O)[C@H](C)NC(=O)[C@H](CCCNC(=N)N)NC(=O)[C@H](C)NC(=O)[C@H](CCC(N)=O)NC(=O)[C@H](CCC(=O)O)NC(=O)[C@H](CC(C)C)NC(=O)[C@H](CC(C)C)NC(=O)[C@@H](NC(=O)[C@H](CCC(N)=O)NC(=O)[C@H](CC(C)C)NC(=O)[C@H](CC(C)C)NC(=O)CNC(=O)[C@@H](NC(=O)[C@@H]1CCCN1C(=O)[C@@H](NC(=O)[C@H](CC(=O)O)NC(=O)[C@H](CC(C)C)NC(=O)[C@H](CO)NC(=O)[C@H](CC(C)C)NC(=O)[C@@H](NC(=O)[C@@H](N)[C@@H](C)CC)C(C)C)C(C)C)[C@@H](C)CC)[C@@H](C)CC)[C@@H](C)O)[C@@H](C)CC)C(=O)N[C@@H](C)C(=O)N[C@@H](CCC(=O)O)C(=O)N[C@H](C(N)=O)[C@@H](C)CC [compound 100] (H-IVLSLDVPIGLLQILLEQARARAAREQAK([AEEA-AEEA-γGlu-γGlu-C20 diacid])TN[Aib]EI[Nle]AEI-NH2)	11	–	–	–	–	–	–	>6494	0.77	No	> 5000	-0.43	-0.8
CC[C@H](C)[C@H](NC)C(=O)N[C@H](C(=O)N[C@@H](CC(C)C)C(=O)N[C@@H](CO)C(=O)N[C@@H](CC(C)C)C(=O)N[C@@H](CC(=O)O)C(=O)N[C@H](C(=O)N1CCC[C@H]1C(=O)N[C@H](C(=O)NCC(=O)N[C@@H](CC(C)C)C(=O)N[C@@H](CC(C)C)C(=O)N[C@@H](CCC(N)=O)C(=O)N[C@H](C(=O)N[C@@H](CC(C)C)C(=O)N[C@@H](CC(C)C)C(=O)N[C@@H](CCC(=O)O)C(=O)N[C@@H](CCC(N)=O)C(=O)N[C@@H](C)C(=O)N[C@@H](CCCNC(=N)N)C(=O)N[C@@H](C)C(=O)N[C@@H](CCCNC(=N)N)C(=O)N[C@@H](C)C(=O)N[C@@H](C)C(=O)N[C@@H](CCCNC(=N)N)C(=O)N[C@@H](CCC(=O)O)C(=O)N[C@@H](CCC(N)=O)C(=O)N[C@@H](C)C(=O)N[C@@H](CCCCNC(=O)COCCOCCNC(=O)COCCOCCNC(=O)CC[C@H](NC(=O)CC[C@H](NC(=O)CCCCCCCCCCCCCCCCCCC(=O)O)C(=O)O)C(=O)O)C(=O)NC(C)(C)C(=O)N[C@@H](CC(N)=O)C(=O)N[C@@H](C)C(=O)N[C@@H](CCC(=O)O)C(=O)N[C@H](C(=O)N[C@@H](CC(C)C)C(=O)N[C@@H](C)C(=O)N[C@@H](CCC(=O)O)C(=O)N[C@H](C(N)=O)C(C)C)[C@@H](C)CC)[C@@H](C)CC)[C@@H](C)CC)C(C)C)C(C)C [SEQ ID NO: 20] (H-[NMeI]VLSLDVPIGLLQILLEQARARAAREQAK([AEEA-AEEA-γGlu-γGlu-C20 diacid])[Aib]NAEILAEV-NH2)	10	>4167	1.2	No	> 5000	-1.4 / ND %	–	–	–	–	–	–	–

Reference: EP4810052A2, “HCRHR2 SELECTIVE POLYPEPTIDES” (Gubra A/S, priority 2023, dated 2026)
